Literature values, collected in patent US20200360403A1, “OPTHALMIC COMPOSITIONS FOR INHIBITING CLOUDING OF THE OCULAR LENS” (priority 2019, published 2020).

Key:
cffl-crystallins = conditions: compared to ATP
aggregated lens protein = conditions: all studies by Daszynski et al.

SMILES | binding scores for good predictive binding to the crystallins (cffl-crystallins) | anti-cataractogenic activity or binding of aggregated lens protein to dissolve cataracts (aggregated lens protein)
CC(C)=CCC[C@@H](C)[C@H]1CC[C@@]2(C)C3=C(CC[C@]12C)[C@@]1(C)CC[C@H](O)C(C)(C)[C@@H]1CC3 [lanosterol] | failed to reach the acceptable threshold binding scores | failed to provide evidence
C[C@H](CCCC(C)(C)O)[C@H]1CC[C@H]2[C@@H]3CC=C4C[C@@H](O)CC[C@]4(C)[C@H]3CC[C@]12C [25-hydroxycholesterol] | failed to reach the acceptable threshold binding scores | failed to provide evidence
